The values that follow come from article PMC5421785, “Citrullination only infrequently impacts peptide binding to HLA class II MHC” (PLoS ONE, 2017).

Where two headings read alike, the source gives them in different places. Square brackets hold non-standard residues; d marks the D form. Ends that are not written are not given here. Peptide text beside a SMILES is read from it. Cit = NC(=O)NCCC[C@H](N)C(=O)O

Experiment [1] concerns the target T1, HLA-DRB1*01:01 (Homo sapiens, UniProt P01903+P01911, A100R/D57E/F55L/F60I/F76Y/I96L/L162R/M171V/P40L/Q125E/R42F/V115G/Y59C).
T1 construct: EBV transformed homozygous cell lines were used as sources of MHC molecules; endogenous in cells; host or cells: EBV transformed homozygous cell lines
The experiment can be described thus: HLA class II peptide binding, inhibition of radiolabeled peptide binding to purified MHC.

The target in experiment [2] is T2, HLA-DRB1*04:01 (Homo sapiens, UniProt P01903+P01911, A100K/A169T/F76Y/I96L/K127E/L162R/M171V/N62H/P40V/Q125Y/R42H/S133A/S149N/S66Y/V115G/V209L/W38E).
T2 construct: EBV transformed homozygous cell lines were used as sources of MHC molecules; endogenous in cells; host or cells: EBV transformed homozygous cell lines
The description is as above.

The mark [3] stands for this setting: citrullinated 15-mer (X), purified MHC, inhibition of radiolabeled peptide binding, dash = IC50 >40,000 nM, read-out: DRB1*01:01 binding capacity, Cit peptide (IC50 nM).
Where [4] appears, read: citrullinated 15-mer (X), purified MHC, inhibition of radiolabeled peptide binding, dash = IC50 >40,000 nM, read-out: DRB1*04:01 binding capacity, Cit peptide (IC50 nM).
Where [5] appears, read: citrullinated 15-mer peptide (X = citrulline), purified HLA-DRB1*01:01, read-out: DRB1*01:01 binding capacity, Cit peptide (IC50 nM).
Setting [6] is: citrullinated 15-mer peptide (X = citrulline), purified HLA-DRB1*04:01, read-out: DRB1*04:01 binding capacity, Cit peptide (IC50 nM).
The mark [7] stands for this setting: ratio of WT IC50 to Cit IC50, >1 = citrullination increases binding.
Setting [8] is: read-out: DRB1*01:01 binding capacity, WT peptide (IC50 nM).
Where [9] appears, read: read-out: DRB1*04:01 binding capacity, WT peptide (IC50 nM).

A word on the IC50: it is the concentration that inhibits the measured activity by half.

For the molecule `CC(C)C[C@H](NC(=O)[C@H](CCC(N)=O)NC(=O)[C@H](CC(=O)O)NC(=O)[C@@H](NC(=O)[C@H](CCC(N)=O)NC(=O)[C@H](CCCNC(N)=O)NC(=O)[C@H](CCCNC(=N)N)NC(=O)[C@H](CC(C)C)NC(=O)[C@@H](N)CCC(=O)O)C(C)C)C(=O)N[C@H](C(=O)N[C@@H](CC(N)=O)C(=O)N[C@@H](CC(=O)O)C(=O)N[C@@H](CCCCN)C(=O)N[C@@H](C)C(=O)N[C@@H](CCCNC(=N)N)C(=O)O)[C@@H](C)O` [ELRXQVDQLTNDKAR] (H-ELR[Cit]QVDQLTNDKAR-OH), the concentration for half-maximal inhibition (IC50) was 2240 nM in experiment [1] (setting [3]) and 11000 nM in experiment [2] (setting [4]).
In the case of `CC(C)[C@H](NC(=O)[C@H](CCCNC(N)=O)NC(=O)CNC(=O)[C@H](C)NC(=O)[C@H](C)NC(=O)CNC(=O)[C@@H]1CCCN1C(=O)[C@H](Cc1ccccc1)NC(=O)CNC(=O)[C@@H](N)[C@@H](C)O)C(=O)NCC(=O)N1CCC[C@H]1C(=O)N1CCC[C@H]1C(=O)NCC(=O)N[C@@H](CO)C(=O)O` [TGFPGAAGXVGPPGS] (H-TGFPGAAG[Cit]VGPPGS-OH), the IC50 in experiment [1] (setting [5]) is 3470 nM; in experiment [2] (setting [6]), > 40000 nM.
Take DRGDVGEKGPEGAPG [Collagen 766 WT]: the IC50 in experiment [1] (wild-type (unmodified Arg) 15-mer peptide, purified HLA-DRB1*01:01, read-out: DRB1*01:01 binding capacity, WT peptide (IC50 nM)) was found to be 729 nM; in experiment [2] (wild-type (unmodified Arg) 15-mer peptide, purified HLA-DRB1*04:01, read-out: DRB1*04:01 binding capacity, WT peptide (IC50 nM)) it was 21600 nM.
Turning to `C[C@H](NC(=O)CNC(=O)[C@@H]1CCCN1C(=O)[C@H](CO)NC(=O)CNC(=O)[C@H](CCC(=O)O)NC(=O)[C@@H](N)CCCNC(N)=O)C(=O)N[C@@H](CC(=O)O)C(=O)NCC(=O)N1CCC[C@H]1C(=O)N1CCC[C@H]1C(=O)NCC(=O)N[C@@H](CCCNC(=N)N)C(=O)N[C@@H](CC(=O)O)C(=O)NCC(=O)O` [XEGSPGADGPPGRDG] (H-[Cit]EGSPGADGPPGRDG-OH; N-terminus and C-terminus assumed), the IC50 in experiment [1] (setting [5]) and in experiment [2] (setting [6]) was > 40000 nM in each case. Moreover, the “DRB1*01:01 binding capacity, WT/cit ratio” value in experiment [1] (setting [7]) came to 1.0. For the same molecule, the “DRB1*04:01 binding capacity, WT/cit ratio” value in experiment [2] (setting [7]) is recorded as 1.0.
As to AANRNNDALRQAKQE [Vimentin 301 WT], the IC50 in experiment [1] (setting [8]) and in experiment [2] (setting [9]) was > 40000 nM in each case.
For the molecule `CC(C)C[C@H](NC(=O)[C@H](CO)NC(=O)[C@H](C)NC(=O)[C@H](CC(N)=O)NC(=O)[C@@H](N)CC(=O)O)C(=O)N[C@@H](C)C(=O)N[C@@H](CCCNC(N)=O)C(=O)N[C@@H](CC(C)C)C(=O)N[C@@H](CC(=O)O)C(=O)N[C@@H](CC(C)C)C(=O)N[C@@H](CCC(=O)O)C(=O)N[C@@H](CCCNC(=N)N)C(=O)N[C@@H](CCCCN)C(=O)N[C@H](C(=O)N[C@@H](CCC(=O)O)C(=O)O)C(C)C` [DNASLAXLDLERKVE] (H-DNASLA[Cit]LDLERKVE-OH), the IC50 in experiment [1] (setting [3]) was 16300 nM; in experiment [2] (setting [4]), > 40000 nM.
The matching figures for `CC[C@H](C)[C@H](NC(=O)[C@H](Cc1ccc(O)cc1)NC(=O)[C@H](CC(N)=O)NC(=O)[C@H](C)NC(=O)[C@H](Cc1ccccc1)NC(=O)[C@H](CCCNC(N)=O)NC(=O)[C@H](CC(=O)O)NC(=O)[C@@H](N)CC(N)=O)C(=O)N[C@@H](CC(=O)O)C(=O)N[C@@H](CCCCN)C(=O)N[C@H](C(=O)N[C@@H](CCCNC(=N)N)C(=O)N[C@@H](Cc1ccccc1)C(=O)N[C@@H](CC(C)C)C(=O)N[C@@H](CCC(=O)O)C(=O)O)C(C)C` [NDXFANYIDKVRFLE] (H-ND[Cit]FANYIDKVRFLE-OH): 816 nM and 10900 nM.
With `CC(C)C[C@H](NC(=O)[C@H](CCCNC(=N)N)NC(=O)[C@H](CO)NC(=O)[C@H](CCCCN)NC(=O)CNC(=O)[C@H](CCC(N)=O)NC(=O)CNC(=O)[C@H](CCCCN)NC(=O)[C@H](CC(C)C)NC(=O)[C@H](CCC(N)=O)NC(=O)[C@@H](N)CCC(=O)O)C(=O)NCC(=O)N[C@@H](CC(=O)O)C(=O)N[C@@H](CC(C)C)C(=O)N[C@@H](Cc1ccc(O)cc1)C(=O)O` [Vimentin 136 WT], the figures for the IC50 in experiment [1] (setting [8]) and in experiment [2] (setting [9]) were 3720 nM and > 40000 nM, respectively.
Turning to GGPGTASRPSSSRSY [Vimentin 16 WT], the half-maximal inhibitory concentration (IC50) in experiment [1] (setting [8]) worked out at 5230 nM; in experiment [2] (setting [9]), 39500 nM.
The matching figures for FKNTRTNEKVELQEL [Vimentin 96 WT]: 4450 nM and 1790 nM.
